# Laboratory results reported in patent US20060025449A1, “Use of N-substituted imino sugars for appetite suppression” (priority 2004, published 2006).
# How the values were obtained:
# lean control mouse = assay: Single intracerebroventricular (ICV) injection, food intake and weight change after 24 hours; format: in vivo
# Experimental: To investigate a central anorexigenic mechanism for weight loss in mice treated with NB-DNJ, single intracerebro-ventricular (ICV) injections were performed. The mice were assessed for food intake and weight change. Mice were anesthetized with isofluorane (4%) delivered by a vaporiser. Upon achievement of a surgical plane of anaesthesia, the animal was transferred to and secured in a Kopf small animal ultra precise stereotaxic instrument (David Kopf Instruments, Tujunga, Calif., USA) fitted with rat ear bars, mouse adaptor and mouse anaesthesia mask. A small amount of lignocaine local anaesthetic gel was applied to the ear bars to reduce any post-operative discomfort. For the remainder of the procedure, anaesthesia was maintained with 2.5% isofluorane. Lacrilube (Allergan Ltd, High Wycombe, UK) was applied to the mouse's eyes and a subcutaneous injection of the non-steroidal anti-inflammatory drug, Rimadyl (Pfizer, Sandwich, Kent, UK) was given for post-operative analgesia. For ICV injections, a small scalpel incision was made along the midline of the scalp from above the eyes to the occiput. A small hole was drilled in the skull, 1 mm lateral and 0.34 mm posterior to Bregma. 1 μl solution was slowly infused into the lateral ventricle at a depth of 2.25 mm, via a glass needle pipette pulled to a thickness of less than 100 microns at the tip. Mice were injected with 2 nmol compound (NB-DNJ, NB-DGJ or 2-deoxy glucose) in isotonic saline vehicle which was injected into controls. The incision was then closed using VetBond acrylic suture fluid (3M Animal Care Products, St Paul, Minn., USA). The whole procedure from induction of anaesthesia to full recovery lasted less than seven minutes. Mice were allowed free access to a pre-weighed quantity of RM1 pellet diet with water provided ad libitum. 24 hours following ICV injection the mice and remaining diet were weighed. To confirm a central anorectic effect of NB-DNJ, 2 nmol NB-DNJ, NB-DGJ and 2 deoxyglucose were injected directly into the lateral cerebral ventricle of lean control mouse brain (approximately 100 μM final cerebro-ventricular concentration). Mice injected with both saline vehicle and NB-DGJ ate a normal quantity of pellet diet in the following 24 hours (FIG. 9), approximately 5% less in this experiment than that seen in control mice in FIG. 7 (not statistically significant). In contrast, NB-DNJ-injected mice ate 20% less (p<0.02 for both saline and NB-DGJ) and 2-deoxy-glucose injections caused a 10% increase in feeding. 2-deoxy-glucose is a mild appetite stimulant in the short-term. Tsutsui et al., Physiol Behav 31, 493-502. In contrast, NB-DGJ had no effect, as expected.
# C57B1/6 mice = assay: Effect of imino sugars admixed with diet on growth of normal control mice; format: in vivo, mouse
# Experimental: Control C57B1/6 and C57BL/6O1aHsd-Lep ob mice were obtained from Harlan, UK at five weeks of age. The mice were housed under standard non-sterile conditions and fed a diet of mouse chow pelleted or expanded ground RM1 diet (SDS Ltd, Witham, Essex) with water available ad libitum. For dietary treatment of the mice with NB-DNJ or NB-DGJ, the diet and compound were admixed thoroughly as dry solids, stored at room temperature and used within 7 days. Unless indicated otherwise, mice were treated with a dose of 2400 mg/kg body weight per day, assuming an intake of around 5 g diet/day. Mice were maintained on diet with or without compound for up to six months of age and were weighed at regular intervals during the course of the experiment (see figure legends for group sizes and further experimental details). To study the effect of compound on obese mice, three groups (n=5) of ob/ob mice were monitored from five weeks of age. One group acted as control and were fed ground RM1 diet. At 6 weeks of age, the second group was started on NB-DNJ in the diet, whilst the third group started drug treatment at 12 weeks of age. All mice were then monitored for up to six months of age. […] In the first week of treatment, mice with NB-DNJ in their diet lost about 10% of their total body mass. Over the course of the following weeks, their weight stabilises. By 5 weeks of treatment they weighed 25% less than the controls. They then started to gain weight. However, after 10 weeks they remained 20% less in mass when compared with the age and sex-matched control group.
# control lean mice = assay: ICV mini-pump implants, long-term intracerebro-ventricular delivery; format: in vivo, mouse
# Experimental: FIG. 11. Control lean mice (n=5 in each group) had icv minipumps (50 mM imino sugar) implanted. Body weight was the monitored at regular intervals over three weeks. See example 7 for further experimental details. The effect of long-term intracerebro-ventricular delivery of imino sugars was determined by the implantation of Alzet mini-osmotic pumps (model 2004, DURECT Corporation, CA, USA) together with the brain infusion kit II which features a high stability low profile cannula. The mini-pumps were loaded with 0.24 ml imino sugar or saline vehicle. The indwelling 28 gauge stainless steel cannula was cut to a length of 2.25 mm. Mice were anaesthetised as for the ICV injections and underwent similar surgical procedures throughout. After drilling a small hole in the cranium at the midline, 2 mm posterior to Bregma, the mini-pump was positioned subcutaneously in the animal's flank and the cannula was implanted. This position and depth ensured delivery to the third cerebral ventricle. The implant was secured to the cranium using VetBond acrylic suture fluid, which was also used to close the surgical wound. The whole procedure lasted less than 9 minutes and mice were fully conscious and recovered within three minutes. For concentration of imino sugar in mini-pumps see figure legends.
# [1] = ICV mini-pump 500 mM, first 24 hours
smiles,measurement,setting,value
"CCCCN1C[C@H](O)[C@@H](O)[C@H](O)[C@H]1CO [NB-DNJ, N-butyldeoxynojirimycin]",ate less than saline- and NB-DGJ-injected mice,"lean control mouse; 2 nmol ICV, 24 hours",20%
same,weight change,"lean control mouse; 2 nmol ICV, 24 hours",significant weight loss
same,initial hyperphagic response,lean control mouse; first 24 hrs post icv injection,did not cause an initialhyperphagic response
same,loss of total body mass,"C57B1/6 mice; 2400 mg/kg/day in diet from 6 weeks of age, first week of treatment",about 10%
same,less in mass compared with age and sex-matched control group,"C57B1/6 mice; 2400 mg/kg/day in diet, after 10 weeks",20%
same,weighed less than the controls,"C57B1/6 mice; 2400 mg/kg/day in diet, by 5 weeks of treatment",25%
same,reduction in food intake compared to the controls,"control lean mice; ICV mini-pump 50 mM, NB-DGJ as control",6%
same,reduction of body weight,"control lean mice; ICV mini-pump 50 mM, after 3 weeks",5%
same,effect on dietary intake,control lean mice; [1],ate even less
same,effect on weight change,control lean mice; [1],lost a little more weight
